Test results taken from patent US20200405715A1, “COMPOSITIONS AND METHODS FOR TREATING CANCER AND INFLAMMATORY DISEASES” (University of Pittsburgh - Of the Commonwealth System of …, priority 2016, published 2020).

tested on: DSS induced colonic inflammation; assay: DSS induced colitis model; assay type: in vivo, C57BL6 mice; details: DSS in water, compounds in drinking water at 10 mg/kg/d (FIG. 12A-B)
Method: FIGS. 12A-12D show DCN1 inhibitors reduce DSS induced colonic inflammation, specifically the following experimental results C57BL6 mice were fed with water ad lib containing 3% dextran sulfate sodium (DSS) for six days. DCN1 inhibitors were administered into drinking water at 10 mg/kg/d, starting at day 1. […] The data represent n=4 mice/group, *P<0.05 versus CON.
Also tested were 3-(decylamino)-5-phenylcyclohex-2-en-1-one (BC1558), 3-(dibenzylamino)-5-phenylcyclohex-2-en-1-one (BC1634) and 3-((4-phenoxybenzyl)amino)-5-phenylcyclohex-2-en-1-one (BC1653) in a mouse colitis model to confirm its anti-inflammatory activity. Briefly, C57BL6 mice were fed with water containing 3.5% […] and colonic length was measured. DSS produced a significant decrease in colon length in mice, consistent with colonic inflammation (FIG. 12A-B). […] Colonic tissue cytokine levels were further analyzed.

SMILES	colon length compared vehicle
O=C1C=C(NCc2ccc(Oc3ccccc3)cc2)CC(c2ccccc2)C1 (stereo not drawn) [BC1653, 3-((4-phenoxybenzyl)amino)-5-phenylcyclohex-2-en-1-one]	significant increase

same assay, conditions: DSS in water, compounds in drinking water at 10 mg/kg/d (FIG. 12C-D)

SMILES	IL1β and IL6 levels in colonic tissue compared to vehicle
O=C1C=C(NCc2ccc(Oc3ccccc3)cc2)CC(c2ccccc2)C1 (stereo not drawn) [BC1653, 3-((4-phenoxybenzyl)amino)-5-phenylcyclohex-2-en-1-one]	large reduction

tested on: HepG2 cells; assay: HepG2 cell proliferation (CellTiter-Glo Luminescent Cell Viability Assay); assay type: cell-based; details: Homo sapiens, 96 h, ATP production, n=3, read-out: IC50Proliferation
Method: Cell proliferation were then measured by CellTiter-Glo® Luminescent Cell Viability Assay (n=3).
4KHepG2 cells were seeded in 96 well plates for overnight. Compounds listed in Table 3 were then added to each well at various concentrations. 96 h later, cell proliferation was measured by ATP production using a CellTiter-Glo® Luminescent Cell Viability Assay (Promega).
3-(pentylamino)-5-phenylcyclohex-2-en-1-one was modified by adding a different sidechain. These novel compounds were tested further in an in vitro proliferation assay using ATPLite Cell Proliferation kit. […] Others lost activity in reducing Cullin Neddylation and inhibiting cell proliferation (FIG. 3C-D).

IC50 [µM]	SMILES
1 to 10	CCCCCNC1=CC(=O)CC(c2ccccc2)C1 (stereo not drawn) [BC1526]
1 to 10	CC(C)CCNC1=CC(=O)CC(c2ccccc2)C1 (stereo not drawn) [BC1532]
> 10	O=C1C=C(NC2CCCCC2)CC(c2ccccc2)C1 (stereo not drawn) [BC1534]
1 to 10	O=C1C=C(NCCc2ccccc2)CC(c2ccccc2)C1 (stereo not drawn) [BC1535]
> 10	CCC(C)NC1=CC(=O)CC(c2ccccc2)C1 (stereo not drawn) [BC1546]
1 to 10	O=C1C=C(NCc2ccccc2)CC(c2ccccc2)C1 (stereo not drawn) [BC1548]
> 10	O=C1C=C(NC23CC4C[C@H](C2)C[C@@H](C4)C3)CC(c2ccccc2)C1 (stereo partly drawn) [BC1549]
1 to 10	O=C1C=C(NC2C[C@@H]3CCC2C3)CC(c2ccccc2)C1 (stereo partly drawn) [BC1550]
< 1	CCCCCCCNC1=CC(=O)CC(c2ccccc2)C1 (stereo not drawn) [BC1552]
< 1	CCCCCCCCNC1=CC(=O)CC(c2ccccc2)C1 (stereo not drawn) [BC1554]
< 1	CCCCCCCCCNC1=CC(=O)CC(c2ccccc2)C1 (stereo not drawn) [BC1556]
< 1	CCCCCCCCCCCNC1=CC(=O)CC(c2ccccc2)C1 (stereo not drawn) [BC1560]
< 1	CCCCCCCCCCCCNC1=CC(=O)CC(c2ccccc2)C1 (stereo not drawn) [BC1562]
> 10	CCCCCCCCCCCCCCCCNC1=CC(=O)CC(c2ccccc2)C1 (stereo not drawn) [BC1564]
> 10	O=C1C=C(NC(c2ccccc2)c2ccccc2)CC(c2ccccc2)C1 (stereo not drawn) [BC1621]
> 10	O=C1C=C(NC2CCCCCCCCCCC2)CC(c2ccccc2)C1 (stereo not drawn) [BC1623]
> 10	O=C1C=C(NC2CCC2)CC(c2ccccc2)C1 (stereo not drawn) [BC1625]
1 to 10	CC1(C)C2C[C@@H]1CCC2CNC1=CC(=O)CC(c2ccccc2)C1 (stereo partly drawn) [BC1627]
< 1	O=C1C=C(NCc2ccc(-c3ccccc3)cc2)CC(c2ccccc2)C1 (stereo not drawn) [BC1629]
< 1	O=C1C=C(NCc2cccc(-c3ccccc3)c2)CC(c2ccccc2)C1 (stereo not drawn) [BC1631]
> 10	O=C1C=C(NCC2CCCCC2)CC(c2ccccc2)C1 (stereo not drawn) [BC1633]
1 to 10	Cc1ccccc1-c1cccc(CNC2=CC(=O)CC(c3ccccc3)C2)c1 (stereo not drawn) [BC1640]
> 10	Cc1ccccc1-c1cccc(CNC2=CC(=O)CC(c3ccc4c(c3)OCO4)C2)c1 (stereo not drawn) [BC1641]

IC50 [µM]	SMILES
> 10	CCCCCCCCCCNC1=CC(=O)CC(c2ccc3c(c2)OCO3)C1 (stereo not drawn) [BC1644]
< 1	CCCCCCCCCCNC1=CC(=O)CC(c2ccco2)C1 (stereo not drawn) [BC1646]
1 to 10	CCCCCCCCCCNC1=CC(=O)CC(c2ccc(F)cc2)C1 (stereo not drawn) [BC1648]
1 to 10	O=C1C=C(NCc2cccc(-c3ncccn3)c2)CC(c2ccccc2)C1 (stereo not drawn) [BC1650]
< 1	O=C1C=C(NCc2cccc(Oc3ccccc3)c2)CC(c2ccccc2)C1 (stereo not drawn) [BC1651]
< 1	O=C1C=C(NCc2ccc(Oc3ccccc3)cc2)CC(c2ccccc2)C1 (stereo not drawn) [BC1653, 3-((4-phenoxybenzyl)amino)-5-phenylcyclohex-2-en-1-one]
> 10	Cc1cccc(N2CCC(NC3=CC(=O)CC(c4ccccc4)C3)CC2)c1 (stereo not drawn) [BC1654]
> 10	O=C1C=C(Nc2cnc(-c3ccccc3)nc2)CC(c2ccccc2)C1 (stereo not drawn) [BC1655]
> 10	O=C1C=C(NCc2cnc(Nc3ccccc3)nc2)CC(c2ccccc2)C1 (stereo not drawn) [BC1656]
1 to 10	O=C1C=C(NCc2cnc(-c3ccccc3)nc2)CC(c2ccccc2)C1 (stereo not drawn) [BC1657]
> 10	O=C1C=C(NCc2nc3ccccc3[nH]2)CC(c2ccccc2)C1 (stereo not drawn) [BC1658]
< 1	O=C1C=C(NCc2ccc3[nH]c4ccccc4c3c2)CC(c2ccccc2)C1 (stereo not drawn) [BC1659]
1 to 10	COc1ccc(Oc2ccc(CNC3=CC(=O)CC(c4ccccc4)C3)cc2)cc1 (stereo not drawn) [BC1660]
> 10	CC(NC1=CC(=O)CC(c2ccccc2)C1)c1ccc(Oc2ccccc2)cc1 (stereo not drawn) [BC1661]
< 1	O=C1C=C(NCc2ccc(Oc3ccc(F)cc3)cc2)CC(c2ccccc2)C1 (stereo not drawn) [BC1662]
< 1	O=C1C=C(NCc2ccc(OC3CCCCC3)cc2)CC(c2ccccc2)C1 (stereo not drawn) [BC1663]
> 10	CN1CCC(c2ccc(CNC3=CC(=O)CC(c4ccccc4)C3)cc2)CC1 (stereo not drawn) [BC1664]
> 10	O=C1C=C(NCc2ccc(CN3CCCCC3)cc2)CC(c2ccccc2)C1 (stereo not drawn) [BC1665]
< 1	O=C1C=C(NCc2ccc(OC3CCCC3)cc2)CC(c2ccccc2)C1 (stereo not drawn) [BC1666]
> 10	CC1CC(C)CN(Cc2ccc(CNC3=CC(=O)CC(c4ccccc4)C3)cc2)C1 (stereo not drawn) [BC1667]
1 to 10	O=C1C=C(NCc2ccc(CN3CCOCC3)cc2)CC(c2ccccc2)C1 (stereo not drawn) [BC1668]
< 1	COc1cc(CNC2=CC(=O)CC(c3ccccc3)C2)ccc1OC1CCCC1 (stereo not drawn) [BC1669]
1 to 10	O=C1C=C(NCc2ccc3oc4ccccc4c3c2)CC(c2ccccc2)C1 (stereo not drawn) [BC1670]

tested on: Nedd8-cullin; assay: Cullin neddylation, protein immunoblotting in HepG2 cells; assay type: cell-based; details: 48 h at 10 uM (FIG. 2)
Description: Cells were then collected and assayed for protein immunoblotting. […]
DCN1 protein is believed to harbor a UBC12 binding pocket. Scott et al, Cell 757:1671-84 (2014). […] Scott et al. (2014). The N-terminal acetylation acts as an avidity enhancer within an interconnected multiprotein complex. Science, 554:674-8 (2011). Specifically, n-terminal of UBC12 is acetylated (FIG. 1A, yellow) and completely buried inside the hydrophobic pocket within DCN1 (4gao.PDB, FIG. 1B). Small molecule inhibition of the DCN1 hydrophobic pocket would presumably disrupt UBC12 binding, and thus disrupt Neddylation of Cullin protein. Potential ligands were assessed that might fit the DCN1 domain cavities (FIG. 1B). 3-(pentylamino)-5-phenylcyclohex-2-en-1-one was selected for future testing (FIG. 1C). […] MLN4924 was used as a positive control.

SMILES	reducing cullin1 neddylation
CCCCCNC1=CC(=O)CC(c2ccccc2)C1 (stereo not drawn) [3-(pentylamino)-5-phenylcyclohex-2-en-1-one]	good activity

tested on: HepG2 tumor implants; assay: HepG2 tumor implants in nude mice, tumor growth; assay type: in vivo, athymic nude mice; details: compounds in drinking water (15 mg/kg/d), start at tumor size 0.1 cm^3 (FIG. 8)
Method: Mice were implanted with HepG2 cells (10^6 cells) through subcutaneous injection. 2 weeks later, once tumor size reaches ˜0.1 cm^3, mice were randomized and the treatment began by adding compounds to the drinking water ([…]). Tested compounds were: Vehicle, 3-(decylamino)-5-phenylcyclohex-2-en-1-one (BC1558), 3-(dibenzylamino)-5-phenylcyclohex-2-en-1-one (BC1634) or 3-((4-phenoxybenzyl)amino)-5-phenylcyclohex-2-en-1-one (BC1653). Tumor volume measurements over time were graphed (n=4-5 mice/group, *P<0.05 versus Vehicle).
As a complementary in vivo model, tumorogenicity was further assessed after implanting HepG2 cells along with 3-(decylamino)-5-phenylcyclohex-2-en-1-one, 3-(dibenzylamino)-5-phenylcyclohex-2-en-1-one, 3-((4-phenoxybenzyl)amino)-5-phenylcyclohex-2-en-1-one treatment in athymic nude mice. Mice were implanted with HepG2 cells through subcutaneous injection. Two weeks later, once tumor size reached 0.1 cm^3, the mice were randomized and the treatment began by adding compounds to the drinking water (15 mg/kg/d).

SMILES	tumor size compared to the vehicle
O=C1C=C(N(Cc2ccccc2)Cc2ccccc2)CC(c2ccccc2)C1 (stereo not drawn) [BC1634, 3-(dibenzylamino)-5-phenylcyclohex-2-en-1-one]	Significantly reduced tumor size
O=C1C=C(NCc2ccc(Oc3ccccc3)cc2)CC(c2ccccc2)C1 (stereo not drawn) [BC1653, 3-((4-phenoxybenzyl)amino)-5-phenylcyclohex-2-en-1-one]	Significantly reduced tumor size
